Assay results from patent US9261497B2, “Method of treating cancer with modulators of SCFSkp2” (New York University, priority 2012, dated 2016).

Assays:
[1] = test system: p27 in 501 Mel, SK-MEL-147, and SK-MEL-173; assay: Immunoblot of steady state protein levels in metastatic melanoma cell lines; assay type: cell-based, human; conditions: 10 μM inhibitor; melanoma cells
Method: 501 Mel cells were also treated with MG-132 (a proteasome inhibitor) to confirm that p27 and p21 induction were responsive to known UPS inhibitors (FIG. 4A, right). […] Thus, treatment of cells with inhibitors targeting the Skp2-Cks1 interface induces protein levels of specific Skp2-Cks1 substrates.
Whole cell extracts were prepared and immunoblotted as previously described Dorrello et al., “S6K1- and betaTRCP-mediated Degradation of PDCD4 Promotes Protein Translation and Cell Growth,” Science 314:467-471 (2006), which is hereby incorporated by reference in its entirety. For knockdown of Skp2 or p27, shRNAs were induced with 2 ng/ml doxycycline for 48 hours, with the last 16 hours co-treated with 0.1% Vehicle or 10 μM inhibitors as indicated. For cycloheximide chase, cells were pretreated 16 h with 0.1% Vehicle or 10 μM inhibitors, followed by 20 ng/ml cycloheximide (Sigma) and whole cell extracts collected for each time point. […] Scanning densitometry was performed on immunoblots using Image J software. For cell cycle analysis, cells were treated with 0.1% Vehicle or 10 μM inhibitors for 16 h. 1×10^6 cells were fixed in 70% ethanol for 2 h, treated with 200 μg/ml RNase A (Invitrogen) for 30 minutes, and stained with 20 μg/ml Propidium Iodine (Sigma). All samples were assayed in triplicates. Signal was detected using the Becton Dickson LSRII flow cytometer and cell cycle profiles were analyzed with FloJo.

[2] = test system: JeKo-1; assay: Cell viability, JeKo-1 mantle cell lymphoma; assay type: cell-based, human; conditions: 24 hours, CalcuSyn
Method: Viable and metabolically active cells were assayed using CellTiter-Blue (Promega) or PrestoBlue (Invitrogen) following manufacturer's instruction. In a 96 well plate format, 15×10^3 cells were pretreated with 0.1% Vehicle or increasing concentration of inhibitors as noted (for 16 h, 24 h, 48 h, and/or 72 hr) and fluorescence was detected on the SpectraMax M2e (Molecular Devices) after 30 min incubation with dye.

[3] = biological target: T1, Q52L-Cks1 mutant (Homo sapiens, UniProt P61024+Q13309, Q52L); assay: In vitro ubiquitylation assay with Q52L-Cks1 mutant; assay type: biochemical; conditions: 50 μM compound
T1 construct: made in house; host or cells: cell-free: rabbit reticulocyte lysate (TNT T7 Coupled Reticulocyte Lysate System, Promega) from pcDNA3.1 plasmids
Description: To interrogate the compound-contacting residues on the Skp2-Cks1 interface, mutants of Skp2 and Cks1 were designed based on the in silico dockings. The predicted electrostatic interactions between the positive charge on the NH2 side group in Q52-Cks1 with the COOH-group in C1 and C16 should be lost when mutated to a neutral-charge leucine (FIG. 7B). […] This confirms that the Q52-Cks1 residue is important for only C1 and C16 activity, as predicted by the in silico dockings. […] The Skp2-R294A and the Cks1-R44A/H mutants lacked ubiquitylation activity (FIG. 7C) preventing the interrogation of these residues' contribution to the activity of C2 and C20. […] Thus, the predicted three-dimensional mode of interaction of the compounds with Skp2-Cks1 was validated at a chemical and protein level.
In vitro reconstituted assays were performed as previously described (Dorrello et al., “S6K1- and betaTRCP-mediated Degradation of PDCD4 Promotes Protein Translation and Cell Growth,” Science 314:467-471 (2006), which is hereby incorporated by reference in their entirety) with the exceptions of the use of (1) unlabeled proteins (wild-type and mutant Skp2 and Cks1, p27, Flag-βTrCP, and HA-PDCD4) generated by in vitro transcription-translation (TNT T7 Coupled Reticulocyte Lysate System, Promega); (2) chain elongation with non-methylated ubiquitin; and (3) immunoblotting to detect poly-ubiquitylation. The following reagents were obtained from Boston Biochem: UBE1, His-UbcH3, His-UbcH5c, Ubiquitin, and Ubiquitin Aldehyde. Additional reagents include CDK2/CyclinE1 (Sigma-Aldrich), S6K (Invitrogen), Okadaic acid (Sigma), and DMSO (Sigma-Aldrich). For ubiquitin charging, UBE1 (100 nM) and His-UbcH3 (10 ng/μl) were incubated with ubiquitin (2.5 μg/μl), ATP (2 mM), and 10 μM […] of inhibitors or Vehicle control for 60 min at 30° C. Reactions were stopped in nondenaturing 2× Sample Buffer, with the addition of 10% Beta-mercaptoethanol as indicated, and analyzed by Western blotting.

[4] = test system: p27 in primary ECA cells; assay: p27 immunoblot in primary endometrial carcinoma (ECA) cells; conditions: 10 μM for 18 h; for Increase of p27 levels over the Vehicle-treated control: grade I, total cell lysates; for Decrease of p27 in the cytoplasm / Increase of nuclear p27: grade II type I
Method: The endometrial carcinoma cell line (derived from a well-differentiated endometrioid Type I ECA) ECC-1 cells (ATCC, Manassas, Va.) were plated at a density of 3×10^5/well/6-well plate and grown in DMEM:F12 supplemented with 10% FBS (BioWest, Ocala, Fla.). The cell line was passaged in the laboratory for fewer than 6 months after receipt. […] ECAs were plated at a density of 2.2×10^6 cells/6-well Primaria® plates (BD Biosciences, San Jose, Calif.) in McCoys 5A media without phenol red containing 10% charcoal-stripped FBS, 2 mM L-Glutamine (Invitrogen) and antimycotic antibiotic solution (Mediatech, Hendon, Va.).
For subcellular fractionation, following treatments, cells were separated into nuclear and cytoplasmic fractions using the NE-PER kit (Thermo Scientific), and 10 μg cytoplasmic and nuclear protein fractions were loaded onto SDS-PAGE for immunoblotting. […] The membranes were incubated with peroxidase-conjugated goat anti-rabbit or goat anti-mouse secondary antibodies in TBST (1:2000; Thermo Scientific). […] Protein bands were resolved using the SuperSignal West Dura kit (Thermo Scientific), visualized by exposure to X-ray film (HyBlot; Denville Scientific, Denville, N.J.), and following densitometric scanning (Kodak Logic-100), the protein bands were quantified by normalizing to β-actin and compared to the untreated control, and the values represented by the graphs of relative protein levels compared to actin in each well and shown as % of Vehicle control.

[5] = test system: ECC-1 cells; assay: ECC-1 cell proliferation (MTS assay); assay type: cell-based, human; conditions: for Inhibition of cellular proliferation over the Vehicle control: 10 μM (FIG. 13A); for Blocking E2-induced proliferation: compound plus E2 (FIG. 14D)
[6] = test system: ECC-1 cells; assay: ECC-1 cell proliferation (MTS assay); assay type: cell-based, human; conditions: for Increase in nuclear p27 and inhibition of cell proliferation following Skp2 knock-down: ECC-1, Skp2 siRNA, knock-down by 85%; for Inhibition of cell proliferation: ECC-1 transfected with control siRNA (FIG. 14B)
Method: ECC-1 cells in complete media were seeded at 1.2×10^5/well in 12-well plates and after 24 h the cells were transfected with either control siRNA or 10 nM Skp2 siRNA using HiPerfect transfection reagent (Qiagen; Valencia, Calif.) and siRNA to three different sites including a pool of siRNAs as shown in the experiment, as previously described (Huang et al., “Estrogen and Progesterone Regulate p27kip1 Levels via the Ubiquitin-Proteasome System: Pathogenic and Therapeutic Implications for Endometrial Cancer,” PLoS One 7:e46072 (2012), which is hereby incorporated by reference in its entirety). […] To determine the effect of C2 and C20 on cell proliferation after knock-down of Skp2, the cells were seeded in 96-well plates at a density of 1×10^4 in complete media, transfected, synchronized, treated with C2 and C20, and cell proliferation determined, as described above.

T1 sequence (Q13309 whole entry): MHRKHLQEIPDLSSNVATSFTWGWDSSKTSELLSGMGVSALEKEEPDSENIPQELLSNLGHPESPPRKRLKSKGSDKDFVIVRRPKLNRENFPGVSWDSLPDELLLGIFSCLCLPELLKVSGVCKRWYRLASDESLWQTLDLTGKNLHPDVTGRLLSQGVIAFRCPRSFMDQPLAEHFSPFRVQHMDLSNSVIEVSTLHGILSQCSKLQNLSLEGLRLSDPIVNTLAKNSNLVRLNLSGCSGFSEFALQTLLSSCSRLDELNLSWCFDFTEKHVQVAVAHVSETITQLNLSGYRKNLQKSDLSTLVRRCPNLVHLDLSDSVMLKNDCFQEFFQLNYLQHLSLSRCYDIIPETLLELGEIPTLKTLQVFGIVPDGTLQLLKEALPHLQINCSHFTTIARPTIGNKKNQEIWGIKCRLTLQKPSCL
T1 sequence (P61024 whole entry Q52L): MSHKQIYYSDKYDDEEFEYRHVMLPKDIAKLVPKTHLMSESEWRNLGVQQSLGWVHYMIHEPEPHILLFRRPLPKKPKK
T1 sequence (P63208 whole entry partner): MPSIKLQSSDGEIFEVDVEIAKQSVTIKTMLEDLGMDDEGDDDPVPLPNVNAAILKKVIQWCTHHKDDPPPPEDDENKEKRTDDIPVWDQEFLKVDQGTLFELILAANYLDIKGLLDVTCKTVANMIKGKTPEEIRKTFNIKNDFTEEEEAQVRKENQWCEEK
T1 sequence (Q13616 whole entry partner): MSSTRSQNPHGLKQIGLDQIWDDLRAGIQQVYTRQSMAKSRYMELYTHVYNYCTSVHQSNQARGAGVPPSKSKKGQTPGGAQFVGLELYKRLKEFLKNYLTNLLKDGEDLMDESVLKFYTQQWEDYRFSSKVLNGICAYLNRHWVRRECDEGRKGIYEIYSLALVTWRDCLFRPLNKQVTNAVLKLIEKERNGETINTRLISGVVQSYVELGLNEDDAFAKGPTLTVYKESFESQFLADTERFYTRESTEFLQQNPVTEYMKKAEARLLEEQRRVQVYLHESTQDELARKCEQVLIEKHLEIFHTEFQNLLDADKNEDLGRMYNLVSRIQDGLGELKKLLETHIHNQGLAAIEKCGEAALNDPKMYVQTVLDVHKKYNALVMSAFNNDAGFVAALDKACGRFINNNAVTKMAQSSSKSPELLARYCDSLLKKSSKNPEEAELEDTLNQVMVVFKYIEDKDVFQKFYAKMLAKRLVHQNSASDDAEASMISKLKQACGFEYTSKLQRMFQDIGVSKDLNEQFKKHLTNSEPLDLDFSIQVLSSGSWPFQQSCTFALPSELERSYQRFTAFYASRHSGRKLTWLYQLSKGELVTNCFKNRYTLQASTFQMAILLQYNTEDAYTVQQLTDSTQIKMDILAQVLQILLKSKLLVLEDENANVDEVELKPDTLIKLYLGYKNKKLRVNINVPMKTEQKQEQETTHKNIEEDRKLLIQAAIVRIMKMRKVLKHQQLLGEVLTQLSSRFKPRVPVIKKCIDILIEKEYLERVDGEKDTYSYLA
T1 sequence (P62877 whole entry partner): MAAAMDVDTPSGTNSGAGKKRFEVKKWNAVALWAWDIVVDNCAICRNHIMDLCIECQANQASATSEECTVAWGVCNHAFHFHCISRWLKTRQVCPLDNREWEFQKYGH

With O=C(O)COc1ccc(Br)cc1C=C1SC(=S)N(Cc2cccnc2)C1=O [Compound C1] the p27 protein induction [1] was “induce p27 protein”, the IC50 [2] was 4.8 µM and the “Inhibition of p27 ubiquitylation with Q52L-Cks1” value (from here on “Inhibition of p27 ubiquitylation”) [3] was “inactive”.
With COC(=O)C1=C(C)N(c2ccc(Br)cc2)C(=O)C1=Cc1ccccc1O [Compound C2] the p27 protein induction [1] was “induce p27 protein”, the “Increase of p27 levels over the Vehicle-treated control” value [4] was 1.9 fold and the “Decrease of p27 in the cytoplasm” value [4] was “approximately 25%”. The “Increase of nuclear p27” value [4] was 67%, the “Inhibition of cellular proliferation over the Vehicle control” value [5] was 33% and the EC50 ([5]; Hillslope method, read-out: EC50 inhibiting proliferation) was 14.3 µM. The “Blocking E2-induced proliferation” value [5] was “equal to the effect of blocking ER activation with ICI 182,780”, the IC50 [2] was 9.3 µM and the “Increase in nuclear p27 and inhibition of cell proliferation following Skp2 knock-down” value [6] was “completely abrogated”. The “Inhibition of cell proliferation” value [6] was 29% and the “Inhibition of p27 ubiquitylation” value [3] was “strongly inhibited”.
In the case of O=C(O)COc1ccc(C=C2SC(=O)N(CC(=O)c3ccc(Cl)cc3)C2=O)cc1 [Compound C16], the p27 protein induction [1] is reported as “induce p27 protein” and the “Inhibition of p27 ubiquitylation” value [3] is reported as “inactive”.
In the case of O=C(NN=Cc1cc(Br)cc(Br)c1O)C(=Cc1ccccc1O)NC(=O)c1ccccc1 [Compound C20], the p27 protein induction [1] is reported as “induce p27 protein”, the “Increase of p27 levels over the Vehicle-treated control” value [4] is reported as 3 fold and the “Decrease of p27 in the cytoplasm” value [4] is reported as “approximately 25%”. The “Increase of nuclear p27” value [4] was 46%, the “Inhibition of cellular proliferation over the Vehicle control” value [5] was 30% and the “Blocking E2-induced proliferation” value [5] was “equal to the effect of blocking ER activation with ICI 182,780”. The “Increase in nuclear p27 and inhibition of cell proliferation following Skp2 knock-down” value [6] was “completely abrogated”, the “Inhibition of cell proliferation” value [6] was 27% and the “Inhibition of p27 ubiquitylation” value [3] was “strongly inhibited”.
